Our source for the Kd values is publication PMC5005324, “Unique Footprint in the scl1.3 Locus Affects Adhesion and Biofilm Formation of the Invasive M3-Type Group A Streptococcus” (Frontiers in Cellular and Infection Microbiology, 2016).

The target of test [1] is rScl1.3FL. Description: Surface plasmon resonance binding of C-C′ cyclic peptide to immobilized rScl1.3FL. On the set-up: species or system Streptococcus pyogenes (M3-type GAS, MGAS315). Particulars: Biacore 3000, 25°C; rScl1.3FL immobilized on streptavidin chip (~100 RU); peptide 10-500 μM; HBS buffer pH 7.4; 1:1 Langmuir model; duplicates; read-out: dissociation constant KD (SPR). As for the experimental part: Real time binding assays were performed at 25°C on a Biacore 3000 Surface Plasmon Resonance (SPR) instrument (GE Healthcare). For immobilization, rScl1.3FL protein containing the C-terminal Strep-tag II was injected at a concentration of 40 μM on streptavidin-coated sensor chip, SA Biacore, until the desired level of immobilization was achieved (averaged value of 100 RU). Binding assays were carried out by injecting the C-C′ cyclic peptide at concentrations ranging between 10 and 500 μM. Experiments were carried out in HBS buffer (10 mM HEPES, 150 mM NaCl, 3 mM EDTA, pH 7.4). The association phase (kon) was followed for 270 s, whereas the dissociation phase (koff) was followed for 300 s. The reference chip sensorgrams were subtracted from sample sensorgrams. Experiments were carried out in duplicates. Kinetic parameters were estimated assuming a 1:1 Langmuir binding model and using version 4.1 Evaluation Software (GE Healthcare).
(In general: In SPR one partner is held on a chip, and binding of the other changes the refractive index at the surface.)

In test [2] the target is rScl1.3FL. Put plainly: Tryptophan fluorescence quenching binding assay in solution. The arrangement: species or system Streptococcus pyogenes (M3-type GAS, MGAS315). Particulars: rScl1.3FL 30 μM, peptide 0-300 μM, 25.0°C, excitation 298 nm, emission 333 nm; 1:1 model; duplicates. The method, then:
rScl1.3FL protein, at a concentration of 30 μM, was incubated with increasing concentrations of C-C′ cyclic peptide (0–300 μM) at 25.0°C, using an excitation wavelength of 298.0 nm and a fluorescence emission wavelength ranging from 300 to 400 nm. The acquisition parameters were set as follows: excitation and emission slits at 5 nm; 120 nm/min scan rate; 1.00 nm data interval averaging time at 0.500 s, PMT voltage at “high.” Fluorescence values were recorded at 333 nm, and subtracted from the fluorescence intensity of the ligand-free protein, generating −Δfluorescence. The −Δfluorescence values were plotted against the peptide concentration (Williamson, [2013]). Experiments were carried out in duplicates. A control assay was carried out employing the buffer as titrant to assess that the dilution effect was under 3%, not affecting the results.

The target in test [3] is recombinant full-length Scl1.3FL protein (streptococcal collagen-like protein 1, M3-type, repaired allele) (Streptococcus pyogenes (group A Streptococcus), M3-type strain MGAS315). Put plainly: SPR; Biacore 3000, 25°C; rScl1.3FL with C-terminal Strep-tag II immobilised on a streptavidin-coated SA chip (about 100 RU); C-C′ cyclic peptide injected at 10-500 μM; HBS buffer (10 mM HEPES, 150 mM NaCl, 3 mM EDTA, pH 7.4); 1:1 Langmuir model.

The target is the same in test [4]. Description: other fluorescence titration; tryptophan fluorescence quenching in solution; rScl1.3FL at 30 μM with 0-300 μM C-C′ cyclic peptide, 25.0°C, excitation 298 nm, read at 333 nm; 1:1 model.

Bridge positions count the residues as written; N and C are the ends. Ends that are not written are not given here.

One may read the Kd as a measure of binding affinity in units of concentration. Take “CRVTYSSPEDGIHELFC (disulfide 1-17 (inferred)) [C-C′ cyclic peptide, Disulfide-cyclised, acetylated and amidated peptide mimicking the C-C′ β-hairpin of the EDA domain of cellular fibronectin]”: the dissociation constant (Kd) in test [1] was 63.3 µM; in test [2] it was 44.5 ± 9 µM.

B1: C-C′ cyclic peptide (EDA-derived, mimics the C-C′ β-hairpin of the extra domain A of cellular fibronectin) (peptide)
peptide: Ac-CRVTYSSPEDGIHELFC-NH2
modifications: disulfide 1-17
SMILES: CC[C@H](C)[C@@H]1NC(=O)CNC(=O)[C@H](CC(=O)O)NC(=O)[C@H](CCC(=O)O)NC(=O)[C@@H]2CCCN2C(=O)[C@H](CO)NC(=O)[C@H](CO)NC(=O)[C@H](Cc2ccc(O)cc2)NC(=O)[C@H]([C@@H](C)O)NC(=O)[C@H](C(C)C)NC(=O)[C@H](CCCNC(=N)N)NC(=O)[C@@H](NC(C)=O)CSSC[C@@H](C(N)=O)NC(=O)[C@H](Cc2ccccc2)NC(=O)[C@H](CC(C)C)NC(=O)[C@H](CCC(=O)O)NC(=O)[C@H](Cc2c[nH]cn2)NC1=O
In the case of B1, the Kd worked out at 63.3 µM in test [3] and 44.5 µM in test [4].
